Values of other authors as cited in patent US9789059B2, “Oral disintegrating tablet” (Boehringer Ingelheim International GmbH, priority 2014, dated 2017).

Conditions: physiological pH range of the gastro-intestinal tract between pH 1 to 7; free acid form

solubility in aqueous systems: very poor solubility
Compound: CCCc1nc2c(C)cc(-c3nc4ccccc4n3C)cc2n1Cc1ccc(-c2ccccc2C(=O)O)cc1 [Telmisartan, 4′-[2-n-propyl-4-methyl-6-(1-methylbenzimidazol-2-yl)-benzimidazol-1-ylmethyl]-biphenyl-2-carboxylic acid]
